Data reported in paper doi:10.1101/2022.09.09.507317v1 (biorxiv, 2022).

Experiments:
Assay in all cases: actin-activated ATPase, PK/LDH-coupled NADH absorbance
PfMyoA = molecular target: T1, PfMyoA (Plasmodium falciparum, UniProt Q8IDR3); type: biochemical; conditions: 2 mM ATP, bovine cardiac actin, 3 mM MgCl2, 5 mM KCl, pH 7.4, 2% DMSO; n = 5
T1 sequence (Q8IDR3 1-818): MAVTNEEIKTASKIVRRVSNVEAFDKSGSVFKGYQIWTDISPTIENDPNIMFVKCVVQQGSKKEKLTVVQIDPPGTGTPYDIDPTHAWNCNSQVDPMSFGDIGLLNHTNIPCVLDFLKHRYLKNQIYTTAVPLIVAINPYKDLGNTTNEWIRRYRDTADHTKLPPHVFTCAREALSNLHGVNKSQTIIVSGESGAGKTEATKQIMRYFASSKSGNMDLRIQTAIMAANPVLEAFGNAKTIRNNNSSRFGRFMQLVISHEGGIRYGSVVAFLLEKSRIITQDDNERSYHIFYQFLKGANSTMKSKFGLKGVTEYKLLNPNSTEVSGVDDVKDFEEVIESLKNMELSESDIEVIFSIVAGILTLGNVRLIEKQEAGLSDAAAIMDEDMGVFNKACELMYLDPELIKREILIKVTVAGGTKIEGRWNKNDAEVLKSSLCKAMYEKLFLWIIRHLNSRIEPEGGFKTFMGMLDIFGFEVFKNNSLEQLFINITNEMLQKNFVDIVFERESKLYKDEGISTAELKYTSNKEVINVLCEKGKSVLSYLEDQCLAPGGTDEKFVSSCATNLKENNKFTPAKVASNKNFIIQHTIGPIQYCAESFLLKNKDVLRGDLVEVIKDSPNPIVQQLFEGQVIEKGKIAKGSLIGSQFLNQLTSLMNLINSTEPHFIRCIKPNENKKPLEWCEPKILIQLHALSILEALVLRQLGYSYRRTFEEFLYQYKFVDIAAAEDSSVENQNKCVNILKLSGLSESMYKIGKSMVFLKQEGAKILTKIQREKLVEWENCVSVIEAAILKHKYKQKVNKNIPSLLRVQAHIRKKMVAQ
T1 sequence (Q8IJM4 1-134 partner): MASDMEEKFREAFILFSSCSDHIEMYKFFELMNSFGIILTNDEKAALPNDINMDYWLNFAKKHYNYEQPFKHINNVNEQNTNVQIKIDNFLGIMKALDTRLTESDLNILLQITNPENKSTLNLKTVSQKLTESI
T1 sequence (Q8I4W8 1-204 partner): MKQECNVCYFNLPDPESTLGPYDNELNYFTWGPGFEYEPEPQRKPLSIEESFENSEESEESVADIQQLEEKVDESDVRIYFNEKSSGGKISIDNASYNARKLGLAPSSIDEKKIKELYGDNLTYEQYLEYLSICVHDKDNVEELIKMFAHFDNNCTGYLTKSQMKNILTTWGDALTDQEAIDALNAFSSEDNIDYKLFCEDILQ

[1] = molecular target: chicken smooth muscle myosin (Gallus gallus, UniProt P10587); type: biochemical; conditions: 2 mM ATP, 3 mM MgCl2, 5 mM KCl, pH 7.4, 2% DMSO, 300 nM myosin, n = 2
chicken smooth muscle myosin, sequence (P10587 2-1979): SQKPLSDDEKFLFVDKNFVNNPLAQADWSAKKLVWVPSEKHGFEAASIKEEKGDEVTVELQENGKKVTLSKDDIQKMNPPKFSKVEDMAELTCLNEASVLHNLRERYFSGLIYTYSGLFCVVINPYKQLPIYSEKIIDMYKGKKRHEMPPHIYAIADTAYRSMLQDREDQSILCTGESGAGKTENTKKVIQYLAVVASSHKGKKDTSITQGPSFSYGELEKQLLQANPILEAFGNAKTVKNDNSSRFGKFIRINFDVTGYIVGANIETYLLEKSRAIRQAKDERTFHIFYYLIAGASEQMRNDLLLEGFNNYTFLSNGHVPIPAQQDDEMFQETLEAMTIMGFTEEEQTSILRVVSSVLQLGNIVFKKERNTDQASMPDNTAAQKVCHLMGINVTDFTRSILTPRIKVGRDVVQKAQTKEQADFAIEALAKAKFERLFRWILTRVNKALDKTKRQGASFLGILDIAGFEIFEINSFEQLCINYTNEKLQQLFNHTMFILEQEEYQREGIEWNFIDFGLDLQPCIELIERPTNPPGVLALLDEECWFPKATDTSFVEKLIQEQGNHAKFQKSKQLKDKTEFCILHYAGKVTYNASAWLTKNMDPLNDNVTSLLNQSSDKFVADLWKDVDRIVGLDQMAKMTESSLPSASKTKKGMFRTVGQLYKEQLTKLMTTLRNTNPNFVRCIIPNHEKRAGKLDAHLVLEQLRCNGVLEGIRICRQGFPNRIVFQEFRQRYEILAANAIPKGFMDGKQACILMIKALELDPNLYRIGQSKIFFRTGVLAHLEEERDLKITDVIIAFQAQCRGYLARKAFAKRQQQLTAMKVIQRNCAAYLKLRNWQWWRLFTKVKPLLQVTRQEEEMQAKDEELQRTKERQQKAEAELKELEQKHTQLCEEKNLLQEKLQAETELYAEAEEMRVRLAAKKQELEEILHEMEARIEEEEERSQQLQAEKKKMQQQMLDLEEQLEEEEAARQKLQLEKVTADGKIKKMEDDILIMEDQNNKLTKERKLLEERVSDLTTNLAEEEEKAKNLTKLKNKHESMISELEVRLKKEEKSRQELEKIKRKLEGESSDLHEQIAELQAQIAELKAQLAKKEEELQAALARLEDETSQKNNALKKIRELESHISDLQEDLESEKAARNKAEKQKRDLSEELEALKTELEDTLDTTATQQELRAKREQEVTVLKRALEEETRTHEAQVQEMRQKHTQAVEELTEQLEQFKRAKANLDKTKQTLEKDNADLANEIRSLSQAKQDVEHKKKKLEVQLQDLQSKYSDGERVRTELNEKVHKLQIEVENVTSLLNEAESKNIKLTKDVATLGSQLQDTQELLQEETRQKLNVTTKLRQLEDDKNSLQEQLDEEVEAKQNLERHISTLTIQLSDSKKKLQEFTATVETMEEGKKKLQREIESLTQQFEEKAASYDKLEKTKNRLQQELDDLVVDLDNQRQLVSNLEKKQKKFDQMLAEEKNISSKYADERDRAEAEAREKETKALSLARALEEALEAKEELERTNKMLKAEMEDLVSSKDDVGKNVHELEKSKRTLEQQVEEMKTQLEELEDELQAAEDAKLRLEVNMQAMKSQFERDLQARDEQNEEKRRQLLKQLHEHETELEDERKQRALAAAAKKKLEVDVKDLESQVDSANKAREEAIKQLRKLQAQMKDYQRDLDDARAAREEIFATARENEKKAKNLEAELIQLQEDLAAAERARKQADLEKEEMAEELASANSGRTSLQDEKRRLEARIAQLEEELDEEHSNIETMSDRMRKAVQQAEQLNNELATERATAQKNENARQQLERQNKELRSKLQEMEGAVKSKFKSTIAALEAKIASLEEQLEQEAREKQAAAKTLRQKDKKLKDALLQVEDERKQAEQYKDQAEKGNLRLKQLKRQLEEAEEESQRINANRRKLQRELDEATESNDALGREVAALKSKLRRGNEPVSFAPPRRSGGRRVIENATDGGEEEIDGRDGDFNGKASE
chicken smooth muscle myosin, sequence (P02607 2-151 partner): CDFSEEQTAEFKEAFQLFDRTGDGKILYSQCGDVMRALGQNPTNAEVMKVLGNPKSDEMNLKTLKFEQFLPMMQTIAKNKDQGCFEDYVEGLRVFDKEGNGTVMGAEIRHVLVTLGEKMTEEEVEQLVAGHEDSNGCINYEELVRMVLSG
chicken smooth muscle myosin, sequence (P02612 2-172 partner): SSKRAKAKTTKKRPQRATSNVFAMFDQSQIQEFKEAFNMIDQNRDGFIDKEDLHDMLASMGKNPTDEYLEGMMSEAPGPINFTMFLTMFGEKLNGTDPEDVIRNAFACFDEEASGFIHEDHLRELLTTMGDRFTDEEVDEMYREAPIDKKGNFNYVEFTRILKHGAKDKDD

rabbit skeletal myosin = type: biochemical, Oryctolagus cuniculus; conditions: 2 mM ATP, 3 mM MgCl2, 5 mM KCl, pH 7.4, 2% DMSO, 100 nM myosin, n = 6
bovine cardiac myosin = bovine cardiac myosin (Bos taurus, UniProt Q9BE39); type: biochemical; conditions: 2 mM ATP, 3 mM MgCl2, 5 mM KCl, pH 7.4, 2% DMSO, 200 nM myosin, n = 3
bovine cardiac myosin, sequence (Q9BE39 whole entry): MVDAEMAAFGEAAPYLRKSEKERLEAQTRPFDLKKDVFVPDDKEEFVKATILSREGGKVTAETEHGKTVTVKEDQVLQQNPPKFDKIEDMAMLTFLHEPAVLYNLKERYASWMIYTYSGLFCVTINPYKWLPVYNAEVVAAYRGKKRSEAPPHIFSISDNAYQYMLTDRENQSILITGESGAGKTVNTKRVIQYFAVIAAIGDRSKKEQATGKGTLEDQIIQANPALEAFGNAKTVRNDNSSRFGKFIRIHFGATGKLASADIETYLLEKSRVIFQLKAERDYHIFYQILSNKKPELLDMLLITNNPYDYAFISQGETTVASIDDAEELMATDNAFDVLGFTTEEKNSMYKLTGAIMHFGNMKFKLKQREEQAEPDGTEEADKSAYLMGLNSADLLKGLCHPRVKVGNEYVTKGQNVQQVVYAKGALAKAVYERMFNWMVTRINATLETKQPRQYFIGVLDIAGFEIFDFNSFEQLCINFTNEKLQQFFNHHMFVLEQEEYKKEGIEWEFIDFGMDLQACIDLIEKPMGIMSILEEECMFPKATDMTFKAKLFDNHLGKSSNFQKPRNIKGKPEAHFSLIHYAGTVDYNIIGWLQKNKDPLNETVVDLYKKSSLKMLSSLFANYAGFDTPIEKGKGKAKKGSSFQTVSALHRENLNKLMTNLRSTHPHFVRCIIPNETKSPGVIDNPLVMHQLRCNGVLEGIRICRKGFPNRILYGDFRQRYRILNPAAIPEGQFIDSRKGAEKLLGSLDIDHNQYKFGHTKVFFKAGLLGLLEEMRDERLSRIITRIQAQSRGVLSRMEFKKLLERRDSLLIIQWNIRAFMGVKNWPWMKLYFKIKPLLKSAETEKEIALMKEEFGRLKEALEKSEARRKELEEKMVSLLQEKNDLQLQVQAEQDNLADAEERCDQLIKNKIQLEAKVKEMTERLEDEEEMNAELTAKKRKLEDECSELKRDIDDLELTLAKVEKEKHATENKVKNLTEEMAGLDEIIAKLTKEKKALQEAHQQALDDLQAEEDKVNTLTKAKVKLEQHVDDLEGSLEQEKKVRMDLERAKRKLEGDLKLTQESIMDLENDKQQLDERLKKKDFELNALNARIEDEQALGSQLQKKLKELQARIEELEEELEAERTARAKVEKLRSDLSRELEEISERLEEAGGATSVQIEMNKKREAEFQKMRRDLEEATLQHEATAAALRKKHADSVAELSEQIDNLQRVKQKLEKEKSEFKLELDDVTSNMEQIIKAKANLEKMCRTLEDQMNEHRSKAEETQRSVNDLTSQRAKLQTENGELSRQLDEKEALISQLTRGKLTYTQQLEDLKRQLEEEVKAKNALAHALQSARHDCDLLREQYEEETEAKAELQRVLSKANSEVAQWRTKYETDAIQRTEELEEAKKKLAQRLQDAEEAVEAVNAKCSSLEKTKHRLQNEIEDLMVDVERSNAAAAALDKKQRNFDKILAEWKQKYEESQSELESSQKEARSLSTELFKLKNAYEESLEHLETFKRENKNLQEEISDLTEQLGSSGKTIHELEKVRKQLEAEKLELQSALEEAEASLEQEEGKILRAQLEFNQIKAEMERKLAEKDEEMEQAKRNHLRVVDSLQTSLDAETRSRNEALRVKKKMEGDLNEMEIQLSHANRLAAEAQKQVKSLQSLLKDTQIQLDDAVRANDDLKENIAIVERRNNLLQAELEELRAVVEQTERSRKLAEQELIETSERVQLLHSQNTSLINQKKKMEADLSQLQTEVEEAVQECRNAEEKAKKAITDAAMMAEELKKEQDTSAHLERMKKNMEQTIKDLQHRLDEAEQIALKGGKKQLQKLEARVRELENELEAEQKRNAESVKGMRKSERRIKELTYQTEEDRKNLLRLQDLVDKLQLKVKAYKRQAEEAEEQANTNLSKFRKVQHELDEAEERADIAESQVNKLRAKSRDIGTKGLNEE
bovine cardiac myosin, sequence (P85100 2-199 partner): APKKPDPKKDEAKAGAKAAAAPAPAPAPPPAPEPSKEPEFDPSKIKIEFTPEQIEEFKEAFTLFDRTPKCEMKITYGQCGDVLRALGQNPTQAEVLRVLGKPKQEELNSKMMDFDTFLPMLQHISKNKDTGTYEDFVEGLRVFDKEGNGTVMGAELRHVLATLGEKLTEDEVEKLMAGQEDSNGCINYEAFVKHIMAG
bovine cardiac myosin, sequence (Q3SZE5 2-166 partner): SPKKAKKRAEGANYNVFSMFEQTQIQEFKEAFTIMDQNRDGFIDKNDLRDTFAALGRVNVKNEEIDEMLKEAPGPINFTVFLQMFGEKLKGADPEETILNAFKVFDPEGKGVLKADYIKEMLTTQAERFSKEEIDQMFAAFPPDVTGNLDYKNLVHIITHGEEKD

IC50 (PfMyoA) [nM]	IC50 [1] [µM]	IC50 (rabbit skeletal myosin) [nM]	IC50 (bovine cardiac myosin) [µM]	Compound
400 ± 100				COc1ccc(C2(NCc3c[nH]nc3-c3cccs3)CC2)cc1 [KNX-002]
	> 50	1000 ± 400	10 ± 6.4	KNX-115
